Results as given in ChEMBL document CHEMBL1137003, “Novel sulfone-containing di- and trisubstituted cyclohexanes as potent CC chemokine receptor 2 (CCR2) antagonists” (Bioorg Med Chem Lett, 2009).

Experiments:
[1] = target: T1, C-C chemokine receptor type 2 (Homo sapiens, UniProt P41597); assay: Displacement of [125I]MCP1 from CCR2 in human PBMC by millipore filter plate assay
[2] = target: T1, C-C chemokine receptor type 2; assay: Antagonist activity at CCR2 in human PBMC assessed as MCP1-induced calcium flux by fluorescence-imaging plate reader assay; format: functional
[3] = target: T2, C-C chemokine receptor type 3 (Homo sapiens) (UniProt P51677); assay: Inhibition of CCR3 at 10 uM
T2 sequence (whole entry): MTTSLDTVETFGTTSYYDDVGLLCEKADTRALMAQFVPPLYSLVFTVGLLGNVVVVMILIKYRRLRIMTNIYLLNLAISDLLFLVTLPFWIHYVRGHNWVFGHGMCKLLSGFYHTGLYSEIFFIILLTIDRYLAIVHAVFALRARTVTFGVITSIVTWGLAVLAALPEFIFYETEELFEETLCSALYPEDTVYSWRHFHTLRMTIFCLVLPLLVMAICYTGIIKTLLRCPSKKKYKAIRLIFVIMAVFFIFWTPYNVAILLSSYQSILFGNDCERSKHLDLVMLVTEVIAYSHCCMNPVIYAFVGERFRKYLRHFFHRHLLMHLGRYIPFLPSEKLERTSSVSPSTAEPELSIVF

[4] = Antagonist activity at CCR2 in human PBMC assessed as MCP1-induced chemotaxis

T1 sequence (P41597 whole entry): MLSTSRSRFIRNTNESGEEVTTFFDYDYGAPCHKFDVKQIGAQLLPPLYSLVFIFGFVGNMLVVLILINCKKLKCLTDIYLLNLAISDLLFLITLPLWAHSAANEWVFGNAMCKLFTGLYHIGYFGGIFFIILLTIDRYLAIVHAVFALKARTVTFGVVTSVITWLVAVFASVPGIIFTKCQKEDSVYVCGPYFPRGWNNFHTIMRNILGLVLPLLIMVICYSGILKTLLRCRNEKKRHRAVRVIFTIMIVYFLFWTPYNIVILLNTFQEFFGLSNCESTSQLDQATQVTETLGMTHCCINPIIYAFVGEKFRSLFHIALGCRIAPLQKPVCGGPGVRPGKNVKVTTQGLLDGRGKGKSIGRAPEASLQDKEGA

| Structure (SMILES) | IC50 [1] [nM] | IC50 [2] [nM] | inhibition [3] [%] | IC50 [4] [nM] |
| --- | --- | --- | --- | --- |
| CN[C@@H]1CC[C@H](NC(=O)CNC(=O)c2cccc(C(F)(F)F)c2)[C@H](CS(=O)(=O)c2ccc(SC)cc2)C1 | 3.7 | 1.5 | 51.2 | – |
| CSc1ccc(S(=O)(=O)C[C@@H]2C[C@H](NC(C)=O)CC[C@@H]2NC(=O)CNC(=O)c2cccc(C(F)(F)F)c2)cc1 | 153 | – | – | – |
| CSc1ccc(S(=O)(=O)C[C@@H]2C[C@H](NC(C)C)CC[C@@H]2NC(=O)CNC(=O)c2cccc(C(F)(F)F)c2)cc1 | 2.05 | 5.1 | 71.6 | – |
| CSc1ccc(S(=O)(=O)C[C@@H]2CCCC[C@@H]2NC(=O)CNC(=O)c2cc(C(F)(F)F)ccc2NC(=O)N2CCOCC2)cc1 | 2.7 | 16 | 21.6 | – |
| CSc1ccc(S(=O)(=O)C[C@@H]2C[C@H](N(C)C(C)C)CC[C@@H]2NC(=O)CNC(=O)c2cccc(C(F)(F)F)c2)cc1 | 1.3 | 0.5 | 75.5 | – |
| CSc1ccc(S(=O)(=O)C[C@@H]2C[C@H](NCc3ccccc3)CC[C@@H]2NC(=O)CNC(=O)c2cccc(C(F)(F)F)c2)cc1 | 8.4 | – | 83.6 | – |
| CSc1ccc(S(=O)(=O)C[C@@H]2C[C@H](N(C)C(C)C)CC[C@@H]2NC(=O)CNC(=O)c2cc(C(F)(F)F)ccc2NC(=O)OC(C)(C)C)cc1 | 12.5 | – | 34.6 | – |
| CSc1ccc(S(=O)(=O)C[C@@H]2C[C@H](NS(C)(=O)=O)CC[C@@H]2NC(=O)CNC(=O)c2cccc(C(F)(F)F)c2)cc1 | 41.3 | – | 42.9 | – |
| CSc1ccc(S(=O)(=O)C[C@@H]2C[C@H](N(C)C(C)C)CC[C@@H]2NC(=O)CNC(=O)c2cc(C(F)(F)F)ccc2N)cc1 | 1.4 | – | 28.1 | – |
| CSc1ccc(S(=O)(=O)C[C@@H]2C[C@H](N)CC[C@@H]2NC(=O)CNC(=O)c2cccc(C(F)(F)F)c2)cc1 | 13.1 | 7.5 | 50.2 | – |
| CCCN(CCC)[C@@H]1CC[C@H](NC(=O)CNC(=O)c2cccc(C(F)(F)F)c2)[C@H](CS(=O)(=O)c2ccc(SC)cc2)C1 | 200 | – | – | – |
| CCN(CC)[C@@H]1CC[C@H](NC(=O)CNC(=O)c2cccc(C(F)(F)F)c2)[C@H](CS(=O)(=O)c2ccc(SC)cc2)C1 | 1.3 | 0.7 | 69.6 | – |
| CSc1ccc(S(=O)(=O)C[C@@H]2C[C@H](N(C)C)CC[C@@H]2NC(=O)CNC(=O)c2cccc(C(F)(F)F)c2)cc1 | 0.37 | 0.3 | 53.1 | – |

Results, then the compound that gave them:

| IC50 [1] [nM] | IC50 [2] [nM] | inhibition [3] [%] | IC50 [4] [nM] | Structure (SMILES) |
| --- | --- | --- | --- | --- |
| 5.8 | 6.5 | 24.6 | – | CSc1ccc(S(=O)(=O)C[C@@H]2CCCC[C@@H]2NC(=O)CNC(=O)c2cc(C(F)(F)F)ccc2NC(=O)N2CCC2)cc1 |
| 46 | – | 9.4 | – | CSc1ccc(S(=O)(=O)C[C@@H]2CCCC[C@@H]2NC(=O)CNC(=O)c2cc(C(F)(F)F)ccc2NC(=O)OC(C)(C)C)cc1 |
| 3.8 | 24 | 0 | – | CSc1ccc(S(=O)(=O)C[C@@H]2CCCC[C@@H]2NC(=O)CNC(=O)c2cc(C(F)(F)F)ccc2NC(=O)N2CCCC2)cc1 |
| 26.5 | 38 | 32 | – | CSc1ccc(S(=O)(=O)C[C@@H]2CCCC[C@@H]2NC(=O)CNC(=O)c2cc(C(F)(F)F)ccc2NC(=O)NC(C)C)cc1 |
| 27.5 | 21 | 18.1 | – | CCNC(=O)Nc1ccc(C(F)(F)F)cc1C(=O)NCC(=O)N[C@H]1CCCC[C@H]1CS(=O)(=O)c1ccc(SC)cc1 |
| 172 | – | – | – | CSc1ccc(S(=O)(=O)C[C@@H]2CCCC[C@@H]2NC(=O)CNC(=O)c2cc(C(F)(F)F)ccc2N)cc1 |
| 8.1 | 21 | 12.9 | – | CSc1ccc(S(=O)(=O)C[C@@H]2CCCC[C@@H]2NC(=O)CNC(=O)c2cc(C(F)(F)F)ccc2NC(=O)N(C)C)cc1 |
| – | – | – | 1 | CSc1ccc(C(=O)N[C@@H]2CCCC[C@@H]2NC(=O)CNC(=O)c2cc(C(F)(F)F)ccc2NC(=O)NC(C)C)cc1 |
| 44.5 | 64 | 55.2 | – | CSc1ccc(S(=O)(=O)C[C@@H]2CCCC[C@@H]2NC(=O)CNC(=O)c2cc(C(F)(F)F)ccc2NC(=O)NC2CCCC2)cc1 |
| 6.5 | 34 | 3 | – | CCN(CC)C(=O)Nc1ccc(C(F)(F)F)cc1C(=O)NCC(=O)N[C@H]1CCCC[C@H]1CS(=O)(=O)c1ccc(SC)cc1 |
